Experimental data reported in article PMC6751662, “Pharmacological and functional similarities of the human neuropeptide Y system in C. elegans challenges phylogenetic views on the FLP/NPR system” (Cell Communication and Signaling : CCS, 2019).
One block for each substance: values may come before it.

Tests used:
Y5R = molecular target: T1, Y5R (Homo sapiens, UniProt Q15761); assay: cAMP reporter gene assay, Gi/o, Y5R; assay type: cell-based; settings: for cAMP assay (Gi/o), Y5R: 4 h, lower = higher Gi/o activity, transfected HEK293, CRE-luciferase, mean of >=3 independent experiments; for Gi (Gs) [x-fold of forskolin], Y5R, mean: inhibition of cAMP production induced by 1 µM forskolin (set to 1.00), transiently transfected HEK293 cells, mean of at least three independent experiments
T1 construct: expressed in transfected cells; host or cells: HEK293, transient
T1 sequence (Q15761 1-445): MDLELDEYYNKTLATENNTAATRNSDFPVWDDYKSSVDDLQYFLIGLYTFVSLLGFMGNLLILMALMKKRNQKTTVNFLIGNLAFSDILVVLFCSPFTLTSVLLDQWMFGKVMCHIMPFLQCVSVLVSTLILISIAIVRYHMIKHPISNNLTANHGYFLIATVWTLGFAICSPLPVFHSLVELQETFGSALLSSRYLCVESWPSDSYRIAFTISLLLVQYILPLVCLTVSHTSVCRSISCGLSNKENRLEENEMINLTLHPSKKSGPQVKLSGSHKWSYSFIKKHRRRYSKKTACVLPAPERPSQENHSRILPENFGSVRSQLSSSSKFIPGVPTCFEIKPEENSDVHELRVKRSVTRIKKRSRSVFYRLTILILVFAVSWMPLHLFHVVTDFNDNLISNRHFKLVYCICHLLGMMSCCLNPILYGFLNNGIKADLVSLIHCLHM
Method: (§1) Activation of Gs and Gi/o was assessed with a cAMP reporter gene assay. HEK293 cells grown to 70–80% confluency in 6-well plates were transiently co-transfected with vectors encoding the receptor and the cAMP reporter gene plasmid pGL4.29 [luc2P/CRE/Hygro] (Promega; 4 μg total, 1:1 ratio) using Metafectene Pro (3 μl/μg DNA; Biontex) following the manufacturer’s instructions. 16 h post transfection, the cells were seeded into white 384-well plates at a density of 20,000 cells/well. On the next day, the medium was removed and the cells were stimulated with 20 μl of peptide solution (or forskolin as positive control) in serum-free DMEM for 4 h. For measuring Gi/o activity, the peptide solutions additionally contained 1 μM forskolin to elevate cellular cAMP levels. After incubation, the luciferase substrate OneGlo in lysis buffer (Promega) was added and the luminescence was measured in a microplate reader Tecan Spark (Tecan). Data were analyzed with GraphPad Prism 5.03 and are shown as fold of basal or fold of forskolin in case of Gαi/o activity.
(§2) For in vitro activation, data is presented as mean ± SEM of at least three independent experiments conducted in technical triplicate. […] For the C. elegans NPRs, we considered the strongest response elicited by any of the peptides downstream of a particular receptor as the receptor’s maximal signal. This may or may not be the biological maximum that can be reached by the ‘true’ endogenous agonist. For the human receptors, the response to the established endogenous agonist reflected the maximal signal.

Y2R = molecular target: T2, Y2R (Homo sapiens, UniProt P49146); assay: cAMP reporter gene assay, Gi/o, Y2R; assay type: cell-based; settings: for cAMP assay (Gi/o), Y2R: 4 h, lower = higher Gi/o activity, transfected HEK293, CRE-luciferase, mean of >=3 independent experiments; for Gi (Gs) [x-fold of forskolin], Y2R, mean: inhibition of cAMP production induced by 1 µM forskolin (set to 1.00), transiently transfected HEK293 cells, mean of at least three independent experiments
T2 construct: expressed in transfected cells; host or cells: HEK293, transient
T2 sequence (P49146 1-381): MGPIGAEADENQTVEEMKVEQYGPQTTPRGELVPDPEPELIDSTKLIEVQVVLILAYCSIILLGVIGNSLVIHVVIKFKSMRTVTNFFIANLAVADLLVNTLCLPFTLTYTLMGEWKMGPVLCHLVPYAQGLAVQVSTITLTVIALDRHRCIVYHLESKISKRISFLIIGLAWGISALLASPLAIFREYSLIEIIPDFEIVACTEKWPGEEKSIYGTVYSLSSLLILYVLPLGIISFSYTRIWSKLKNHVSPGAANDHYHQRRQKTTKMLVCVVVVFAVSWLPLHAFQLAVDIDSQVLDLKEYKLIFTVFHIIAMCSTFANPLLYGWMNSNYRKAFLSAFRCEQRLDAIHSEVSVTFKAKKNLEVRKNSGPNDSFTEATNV
Method: as §1, §2

Y4R = molecular target: T3, Y4R (Homo sapiens, UniProt P50391); assay: cAMP reporter gene assay, Gi/o, Y4R; assay type: cell-based; settings: for cAMP assay (Gi/o), Y4R: 4 h, lower = higher Gi/o activity, transfected HEK293, CRE-luciferase, mean of >=3 independent experiments; for Gi (Gs) [x-fold of forskolin], Y4R, mean: inhibition of cAMP production induced by 1 µM forskolin (set to 1.00), transiently transfected HEK293 cells, mean of at least three independent experiments
T3 construct: expressed in transfected cells; host or cells: HEK293, transient
Method: as §1, §2

NPR-11 = molecular target: T4, NPR-11 (Caenorhabditis elegans, UniProt Q18179); assay: IP accumulation assay, chimeric GαΔ6qi4myr, NPR-11; assay type: cell-based, C. elegans; settings: 1 h, HBSS + 20 mM LiCl, HEK293 receptor + GαΔ6qi4myr, HTRF IP-One
T4 construct: expressed in transfected cells; host or cells: HEK293, transient
T4 sequence (Q18179 1-402): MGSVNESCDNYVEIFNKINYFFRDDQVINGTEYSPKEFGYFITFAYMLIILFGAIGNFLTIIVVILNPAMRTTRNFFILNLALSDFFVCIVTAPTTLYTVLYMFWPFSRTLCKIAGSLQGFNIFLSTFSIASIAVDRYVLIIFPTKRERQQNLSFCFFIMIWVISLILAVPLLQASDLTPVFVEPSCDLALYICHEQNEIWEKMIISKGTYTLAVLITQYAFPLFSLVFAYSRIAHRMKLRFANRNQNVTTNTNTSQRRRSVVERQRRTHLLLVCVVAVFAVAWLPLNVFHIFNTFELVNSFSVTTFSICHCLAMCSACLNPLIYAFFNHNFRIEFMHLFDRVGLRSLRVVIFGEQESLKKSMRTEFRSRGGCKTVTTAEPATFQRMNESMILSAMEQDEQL
Method: (§3) For measuring IP accumulation, HEK293 cells grown to 70–80% confluency in 6-well plates were transiently co-transfected using Metafectene Pro (2.5 μl/μg DNA; Biontex) with plasmids containing receptor and/or mock (empty pcDNA3.1) (for endogenous Gq-coupling) using 4 μg total DNA in a ratio of 3:1 following the manufacturer’s instructions. For testing Gα16- and GαΔ6qi4myr-coupling, plasmids encoding the corresponding Gα protein were co-transfected instead of mock. Gα16 is naturally promiscuous and stimulates the phospholipase C (PLC) pathway leading to IP production, while the exchange of the C-terminal four amino acids of Gαq for the corresponding residues of Gαi1 in the chimeric GαΔ6qi4myr confers the ability to couple to Gi/o protein-preferring receptors but still stimulate PLC, thus specifically redirecting downstream cellular signaling. 16 h post transfection, the cells were seeded into white 384-well plates at a density of 20,000 cells/well. Media was removed 24 h later and the cells were incubated with the indicated concentration of peptides for 1 h in HBSS + 20 mM LiCl. IP accumulation was measured with the HTRF-based IP-One Gq kit (Cisbio) on a microplate reader (Tecan Spark).
as §2

[1] = tested on: mock (empty vector) transfected HEK293 cells; assay: IP accumulation assay, negative control: empty vector (mock) instead of the receptor; assay type: cell-based, Homo sapiens; settings: 1 h, HBSS + 20 mM LiCl, HEK293 with empty vector instead of receptor (negative control), HTRF IP-One, mean of >=3 independent experiments
Method: as §3, §2

[2] = 0.1 µM peptide + 1 µM forskolin (set to 1.00)
[3] = 10 µM peptide + 1 µM forskolin (set to 1.00)
[4] = 0.1 µM peptide (Table S8), mean of >=3 independent experiments
[5] = 10 µM peptide, mean of >=3 independent experiments (Tables S5 and S8)

T3 sequence (P50391 whole entry): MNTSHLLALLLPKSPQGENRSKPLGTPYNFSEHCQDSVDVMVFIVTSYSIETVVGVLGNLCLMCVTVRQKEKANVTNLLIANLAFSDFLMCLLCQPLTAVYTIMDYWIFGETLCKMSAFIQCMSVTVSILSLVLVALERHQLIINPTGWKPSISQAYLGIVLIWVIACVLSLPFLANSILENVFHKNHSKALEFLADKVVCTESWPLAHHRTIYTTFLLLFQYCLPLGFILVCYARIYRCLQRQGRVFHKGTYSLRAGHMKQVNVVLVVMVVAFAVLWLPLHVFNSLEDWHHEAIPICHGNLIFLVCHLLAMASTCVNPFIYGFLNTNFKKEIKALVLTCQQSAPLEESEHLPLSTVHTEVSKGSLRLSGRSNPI

cAMP assay (Gi/o), Y5R (Y5R; [2]): 1.07 x-fold of forskolin | cAMP assay (Gi/o), Y5R (Y5R; [3]): 0.96 x-fold of forskolin | cAMP assay (Gi/o), Y2R (Y2R; [2]): 0.80 x-fold of forskolin | cAMP assay (Gi/o), Y2R (Y2R; [3]): 0.17 x-fold of forskolin | cAMP assay (Gi/o), Y4R (Y4R; [2]): 1.01 x-fold of forskolin | cAMP assay (Gi/o), Y4R (Y4R; [3]): 0.75 x-fold of forskolin
Substance: EASAFGDIIGELKGKGLGGRMRF-NH2 [FLP-27, NPY-like C. elegans FLP with C-terminal RxRF/Ya signature]

IP accumulation with GαΔ6qi4myr, NPR-11 (NPR-11; [4]): 0.92 x-fold of basal | IP accumulation with GαΔ6qi4myr, NPR-11 (NPR-11; [5]): 6.48 x-fold of basal
Substance: AGSDPNFLRF-NH2 [FLP-1-2, C. elegans FMRFamide-like peptide, C-terminally amidated, synthesized by SPPS]
IP accumulation, mock ([1]; 0.1 µM peptide): 4.14 x-fold of basal | IP accumulation, mock ([1]; 10 µM peptide): 1.78 x-fold of basal

cAMP assay (Gi/o), Y5R (Y5R; [2]): 0.94 x-fold of forskolin | cAMP assay (Gi/o), Y5R (Y5R; [3]): 0.99 x-fold of forskolin | cAMP assay (Gi/o), Y2R (Y2R; [2]): 0.89 x-fold of forskolin | cAMP assay (Gi/o), Y2R (Y2R; [3]): 0.76 x-fold of forskolin | cAMP assay (Gi/o), Y4R (Y4R; [2]): 0.95 x-fold of forskolin | cAMP assay (Gi/o), Y4R (Y4R; [3]): 0.90 x-fold of forskolin
Substance: APLEGFEDMSGFLRTIDGIQKPRF-NH2 [FLP-33, NPY-like C. elegans FLP with C-terminal RxRF/Ya signature]

Gi (Gs) [x-fold of forskolin], Y5R, mean (Y5R; 0.1 µM peptide): 0.89 x-fold of forskolin | Gi (Gs) [x-fold of forskolin], Y5R, mean (Y5R; 10 µM peptide): 0.91 x-fold of forskolin | Gi (Gs) [x-fold of forskolin], Y2R, mean (Y2R; 0.1 µM peptide): 0.86 x-fold of forskolin | Gi (Gs) [x-fold of forskolin], Y2R, mean (Y2R; 10 µM peptide): 1.05 x-fold of forskolin | Gi (Gs) [x-fold of forskolin], Y4R, mean (Y4R; 0.1 µM peptide): 0.79 x-fold of forskolin | Gi (Gs) [x-fold of forskolin], Y4R, mean (Y4R; 10 µM peptide): 0.94 x-fold of forskolin
Substance: RGPSGPLAF-NH2 [[R8A]FLP-15-2]

IP accumulation with GαΔ6qi4myr, NPR-11 (NPR-11; [4]): 1.03 x-fold of basal | IP accumulation with GαΔ6qi4myr, NPR-11 (NPR-11; [5]): 2.79 x-fold of basal
Substance: ASPSFIRF-NH2 [FLP-4-2, C. elegans FMRFamide-like peptide, C-terminally amidated, synthesized by SPPS]
IP accumulation, mock ([1]; 0.1 µM peptide): 0.75 x-fold of basal | IP accumulation, mock ([1]; 10 µM peptide): 0.75 x-fold of basal

Gi (Gs) [x-fold of forskolin], Y5R, mean (Y5R; 0.1 µM peptide): 0.84 x-fold of forskolin | Gi (Gs) [x-fold of forskolin], Y5R, mean (Y5R; 10 µM peptide): 0.87 x-fold of forskolin | Gi (Gs) [x-fold of forskolin], Y2R, mean (Y2R; 0.1 µM peptide): 0.88 x-fold of forskolin | Gi (Gs) [x-fold of forskolin], Y2R, mean (Y2R; 10 µM peptide): 0.81 x-fold of forskolin | Gi (Gs) [x-fold of forskolin], Y4R, mean (Y4R; 0.1 µM peptide): 0.81 x-fold of forskolin | Gi (Gs) [x-fold of forskolin], Y4R, mean (Y4R; 10 µM peptide): 0.85 x-fold of forskolin
Substance: GLGPRPLAF-NH2 [[R8A]FLP-21, R8A control peptide of FLP-21, penultimate arginine exchanged for an alanine]

IP assay endog. Gαq + GαΔ6qi4myr, NPR-11 (NPR-11; 0.1 nM peptide (Table S5), mean of >=3 independent experiments): 1.03 x-fold of basal | IP accumulation with GαΔ6qi4myr, NPR-11 (NPR-11; [4]): 1.03 x-fold of basal | IP accumulation with GαΔ6qi4myr, NPR-11 (NPR-11; [5]): 6.49 x-fold of basal
Substance: APKPKFIRF-NH2 [FLP-5-1, C. elegans FMRFamide-like peptide, C-terminally amidated, synthesized by SPPS]
IP accumulation, mock ([1]; 0.1 µM peptide): 1.08 x-fold of basal | IP accumulation, mock ([1]; 10 µM peptide): 1.01 x-fold of basal

IP accumulation with GαΔ6qi4myr, NPR-11 (NPR-11; [4]): 0.92 x-fold of basal | IP accumulation with GαΔ6qi4myr, NPR-11 (NPR-11; [5]): 1.17 x-fold of basal
Substance: NPENDTPFGTMRF-NH2 [FLP-3-4, C. elegans FMRFamide-like peptide, C-terminally amidated, synthesized by SPPS]
IP accumulation, mock ([1]; 0.1 µM peptide): 1.08 x-fold of basal | IP accumulation, mock ([1]; 10 µM peptide): 1.16 x-fold of basal
